Measurements from patent US4078049A, “Acetylcholine assay” (Hoffmann-La Roche Inc., priority 1977, dated 1978).

System: antibody in the antiserum of rabbit immunized by the acetylcholine bovine serum albumin immunogen
Test: Radioimmunoassay specificity: inhibition of binding of acetylcholine-H^3 to the antibody
Description: The volume was adjusted to 0.5 ml with phosphate-buffered saline, pH 7.4, which is the optimal pH for the assay. […]. […] After 2 washings with 50% saturated ammonium sulfate, the precipitate was dissolved in 0.5 ml of water. […] The 12 ml washings were all collected in the vial. The radioactivity was then counted with a Beckman liquid scintillation counter. The dilution of the antiserum chosen for further studies was 1:50.

Work on CC(=O)OCC[N+](C)(C)C [Acetylcholine, acetylcholine] yielded an IC50 (read-out: concentration producing 50% inhibition of binding of acetylcholine --H^3 to the antibody, antiserum 1:50, incubated 2 hours at 4° C, pH 7.4, eserine present, ammonium sulfate precipitation) of 0.03 nM.

For CC(=O)O [acetate], the “recognition by the antibody (competition with labelled acetylcholine)” value (antiserum incubated with acetate in the presence of labelled acetylcholine) was “failed to recognize”.
